Laboratory results taken from patent publication US9458427B2, “IFNγR2 compositions and methods of inhibiting neuronal cell death” (Case Western Reserve University, priority 2009, dated 2016).
Ends that are not written are not given here.

B1: IFNγR21-295: mutant encoding amino acids 1-295 of IFNγR2, retaining Jak2-binding domain but not the C-terminal 41 amino acids (protein)
chain: APPDPLSQLPAPQHPKIRLYNAEQVLSWEPVALSNSTRPVVYQVQFKYTDSKWFTADIMSIGVNCTQITATECDFTAASPSAGFPMDFNVTLRLRAELGALHSAWVTMPWFQHYRNVTVGPPENIEVTPGEGSLIIRFSSPFDIADTSTAFFCYYVHYWEKGGIQQVKGPFRSNSISLDNLKPSRVYCLQVQAQLLWNKSNIFRVGHLSNISCYETMADASTELQQVILISVGTFSLLSVLAGACFFLVLKYRGLIKYWFHTPPSIPLQIEEYL
modifications: left off: large carriers

Legend:
[1] = test system: Bim, Bcl-2, Bax, caspase-3; experiment: Western blot analysis of Bim, Bcl-2, Bax and cleaved caspase-3 in hippocampal slice cultures; format: cell-based, mouse
Method: (§1) Organotypic hippocampal slice cultures were prepared as described previously. Briefly, hippocampal slice cultures were prepared using 7-10-day-old mouse pups. Slices were cut at 400 μm on a Mcllwain tissue chopper, transferred to Millicell membrane inserts ([…]; Millipore), and placed in 6-well culture plates. The culture medium consisted of basal Eagle's medium with Earle's balanced salt solution, 20% heat-inactivated horse serum, enriched with 5.6 mM glucose. The medium was changed every other day. The effect of oligomeric Ab (500 nM) was tested in the slices that had been maintained for 11-14 days in vitro. Aβ oligomer or reversed sequence of Aβ1-42 control peptide (Aβ42-1) was added to cultures in serum-free medium and, after the treatment, the hippocampal slices were rinsed twice in ice-cold phosphate-buffered saline (PBS), and then harvested by removing the Millicell membrane insert.
The protein concentration was determined by BCA assay (Pierce, Rockford, Ill., USA). The extracted proteins were separated on 10 or 12% SDS-polyacrylamide gel and transferred onto polyvinylidene difluoride membranes. The blots were blocked with 10% non-fat milk in TBS-T for 1 h at room temperature, and then treated with primary antibodies diluted with 1% non-fat milk and incubated overnight at 4° C. The following antibodies were used for western blot analysis: anti-caspase-3 (1:1000; Santa Cruz Biotechnology, Santa Cruz, Calif., USA), anti-Bim (1:1000; Stressgen, Farmingdale, N.Y., USA), anti-Bcl-2 (1:1000; Stressgen) and 6A7 (conformational specific Bax antibody) (1:1000; BD Pharmingen, San Diego, Calif., USA).

Bax [2] = molecular target: T1, Bax (Mus musculus, UniProt Q07813); experiment: Immunocytochemistry with 6A7 antibody (active Bax) in hippocampal slice cultures; format: cell-based
T1 construct: from tissue; host or cells: mouse hippocampal slice culture
Method: as §1
Cultured hippocampal slices were rinsed with icecold PBS once and fixed for 2 h with 4% paraformaldehayde in 0.1M PBS. After washing with PBS, sections were permeabilized overnight with PBS containing 0.2% Triton X-100. At the end of the permeabilization blocking solution, 10% normal goat serum in PBS was applied for 4 h at room temperature. After washing with PBS, primary antibody was added and incubated for 24-48 h at 4° C. […] Images were then analyzed with the Axiovision software (Zeiss).

[3] = test system: organotypic hippocampal slice cultures; experiment: Neuronal cell death in organotypic hippocampal slice cultures (PI uptake, Nissl staining); format: cell-based; details: for Suppression of oligomeric Aβ-induced neuronal loss (Nissl staining): peptide co-applied with oligomeric Aβ; for Prevention of oligomeric Aβ-induced PI uptake: peptide co-applied with oligomeric Aβ (500 nM), after 24-h treatment
Method: as §1
To determine neuronal cell death in the hippocampal slices, PI (5 μg/ml) was added to the slice culture medium. Images were acquired through an AxioCam camera on an Axiovert 200M microscope (Zeiss, Oberkochen, Germany). Fluorescent intensity was measured using Image J (NIH, Bethesda, Md., USA). Hematoxylin and eosin (H&E) and Niss1 staining was also performed for routine histochemical and morphological analyses.

[4] = test system: C57BL6/J mice hippocampus; experiment: Intrahippocampal injection of oligomeric Aβ in mice; format: in vivo, mouse
Method: C57BL6/J mice (The Jackson Laboratories; 2-3-month-old) were anesthetized with pentobarbital and placed in a stereotaxic frame. Injection was made using a 10-μl microsyringe (Hamilton, Reno, Nev., USA). […] Control animals were prepared identically and injected with the same volume and concentration of Aβ42-1 in PBS. Injections were made at stereotaxic coordinates from bregma; antereoposterior (AP)=2.3 mm, mediolateral (ML)=2.5 mm and doroventral (DV)=−2.5 mm according to a previous report. This corresponds to a site in the dorsal hippocampus in the apical dendritic zones of the CA1 region near the hippocampal fissure. Mice were killed 10 or 20 days after injection, brains dissected out, fixed in 10% buffered-formalin and paraffin-embedded. For brain tissue sections, 6-μm-thick serial sections were cut, mounted onto slides and rehydrated according to standard protocols.
Cultured hippocampal slices were rinsed with icecold PBS once and fixed for 2 h with 4% paraformaldehayde in 0.1M PBS. After washing with PBS, sections were permeabilized overnight with PBS containing 0.2% Triton X-100. At the end of the permeabilization blocking solution, 10% normal goat serum in PBS was applied for 4 h at room temperature. After washing with PBS, primary antibody was added and incubated for 24-48 h at 4° C. After thorough washing of the sections in PBS, a secondary antibody labeled with either Alexa Fluor (Life Technologies, Grand Island, N.Y., USA) 488 or 568 (1:300) was added and incubated for 4 h at room temperature. All of the experiments contained at least one sample incubated without a primary antibody to exclude non-specific signal. Nuclei were visualized with DAPI. Images were acquired through an AxioCam camera on an Axiovert 200M microscope (Zeiss). Images were then analyzed with the Axiovision software (Zeiss).
Detection of 3′-OH termini of DNA strand breaks was performed using in situ cell death detection kit (Roche). Briefly, the tissue sections were treated with proteinase K (20 μg/ml in 10 mmol/l Tris-HCl, pH 7.4) for 30 min at 37° C. after rehydration. After rinsing with PBS, TUNEL reaction mixture containing terminal deoxynucleotidyl transferase and fluorescence-labeled nucleotide was applied for 1 h 37° C. The samples were then washed and mounted using Aquamount (Southern Biotech, Birmingham, Ala., USA).

Bax [5] = molecular target: T2, Bax (Homo sapiens, UniProt Q07812); experiment: Staurosporine-induced Bax activation in HeLa cells (6A7 antibody immunostaining); format: cell-based; set-up: endogenous in cells; host or cells: HeLa; details: staurosporine 100 nM, 3 h
Method: HeLa cells were transiently transfected with pEGFP-C2-IFNγR2 (wild type 1-295, or 296-337) using […]® (Qiagen, Valencia, Calif.) in accordance with the manufacturer's instructions. Four micograms of the plasmid were used to transfect cells cultured in 6-cm diameter dishes. After 24 h of transfection, the cells were treated with staurosporine (100 nM) for 3 h. Then, the cells were washed with phosphate buffer pH 7.4 (PBS), fixed using paraformaldehyde (1%), permeabilized with Triton X-100 (0.02%), blocked with goat serum, and the activation of Bax was analyzed by immunocytochemistry using monoclonal Bax 6A7 antibody (BDPharmingen) and ALEXA FLUOR® 568-labeled anti-mouse IgG secondary antibody (Invitrogen).

[6] = test system: HT1080 (IFNγR2 null mutant and JAK2 null mutant) cells; experiment: Etoposide-induced apoptosis in HT1080-derived IFNγR2 null and Jak2 null cells (Hoechst nuclear staining); format: cell-based, human; details: cells lacking IFNγR2 and Jak2, 10 μM etoposide for 24 h
Method: HT1080 (wild type, IFNγR2 null mutant and JAK2 null mutant) cells were cultured in Dulbecco's Modified Eagle's Medium (DMEM) supplemented with 10% fetal bovine serum (FBS). HeLa, Human Embryonic Kidney (HEK) 293 and HEK293T cells were purchased from ATCC, and cultured in DMEM supplemented with 10% FBS. LNCap and PC3 cells were purchased from ATCC and cultured in DMEM F12 medium supplemented with 10% FBS. RWPE1 and RWPE2 were purchased from ATCC and cultured in keratinocytes-SFM plus supplements medium (Gibco). Primary mammary epithelial (4A100) cultures were derived from organoids isolated from discarded mammary tissue acquired from patients undergoing reduction mammoplasty surgery. Anonymized specimens were acquired from patients who had given written consent, through the Tissue Procurement and Histology Core Facility of the Case Comprehensive Cancer Center (Case), under a Case CCC IRB approved protocol. Primary epithelial cultures were grown in M87A+X medium. Human HME1 cells (Clontech) were grown in medium 171 with mammary epithelial growth supplement (Cascade Biologics) and penicillin-streptomycin.42 Human breast cancer cell line MDA-MD468 was cultured in RPMI, 5% FBS, supplemented with L-glutamine, penicillin-streptomycin and fungizone (Gibco). […]
Cells were cultured overnight in DMEM supplemented with 10% FBS. […] Transfection efficiency was analyzed by the expression of the EGFP-tagged proteins.
(§2) Apoptosis was induced by transfecting the cells with pcDNA3-human Bax, or pcDNA3-human Bak, or pcDNA3-human Bim EL, or by treatment with etoposide (10 μM) or staurosporine (100 nM). To determine the induction of apoptosis by different apoptotic stresses, cells were stained with Hoechst 33258 dye, and the numbers of cells with apoptotic nuclei were counted using fluorescence microscopy. Three hundred cells were analyzed in triplicate samples. […] Caspase activity were measured by using a fluorogenic caspase 3 substrate II (Calbiochem), IFNγR2 constructs were cloned in pEGFP-C2 (IFNγR2wild type, IFNγR21-295 and IFNγR2296-337) vector.

Bax [7] = molecular target: T2, Bax; experiment: Apoptosis induced by Bax overexpression in HEK293 cells (Hoechst nuclear staining); format: cell-based; set-up: expressed in transfected cells; host or cells: HEK293; details: HEK293 cells co-transfected with pcDNA3-h Bax and pEGFP-C2-IFNγR2 construct, 24 h after transfection
Method: (§3) Cells were cultured overnight in DMEM supplemented with 10% FBS. The transfections were performed using […]® (Qiagen, Valencia, Calif.) in accordance with the manufacturer's instructions. Transfection efficiency was analyzed by the expression of the EGFP-tagged proteins.
as §2
(§4) For Bax, Bak or Bim EL overexpression, cells were transfected with either 1 μg pcDNA3-human Bax, 1 μg pcDNA3-human Bak, or 1 μg pcDNA3 human Bim EL, and 4 μg of pEGFP plasmid encoding IFNγR2, and the apoptosis or caspase activity was determined 24 h after the transfection.

human Bim EL = experiment: Apoptosis induced by Bim overexpression in HEK293T cells; format: cell-based; details: 24 h after transfection
Method: as §3, §2, §4

[8] = test system: hippocampal slice cultures; experiment: Cell permeability of FITC-tagged peptides in hippocampal slice cultures; format: cell-based, mouse; details: after 24-h treatment
Description: In this study, in addition to utilizing Bax knockout (KO) mice, we utilized BIP to examine the role of Bax in oligomeric Aβ-induced neurotoxicity. BIP used in this study consists of five amino acids, VPTLK, a sequence that is known to inhibit Bax activation. […] Both peptides were tagged with fluorescein isothiocyanate (FITC) so that intracellular delivery can be tracked by FITC signal.

T2 sequence (Q07812 whole entry): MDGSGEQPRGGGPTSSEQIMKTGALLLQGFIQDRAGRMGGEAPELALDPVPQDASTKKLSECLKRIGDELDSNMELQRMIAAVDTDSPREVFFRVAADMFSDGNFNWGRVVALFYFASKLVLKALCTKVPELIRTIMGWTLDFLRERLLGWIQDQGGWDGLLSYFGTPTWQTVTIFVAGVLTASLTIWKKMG
T1 sequence (Q07813 whole entry): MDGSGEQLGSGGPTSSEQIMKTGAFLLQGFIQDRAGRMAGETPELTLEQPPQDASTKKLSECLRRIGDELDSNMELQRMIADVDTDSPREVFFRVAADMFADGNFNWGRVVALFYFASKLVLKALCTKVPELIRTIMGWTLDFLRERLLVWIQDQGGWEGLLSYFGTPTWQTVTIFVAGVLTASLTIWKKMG

| Molecule | Inhibition of STS-induced Bax activation (6A7 Ab-positive cells in GFP-positive cells) (Bax [5]) | Inhibition of etoposide-induced apoptosis [6] | Inhibition of apoptosis induced by Bax overexpression (Bax [7]) | Suppression of oligomeric Aβ-induced neuronal loss (Nissl staining) [3] | Prevention of oligomeric Aβ-induced PI uptake [3] | Cell permeability (green fluorescence of FITC-tagged peptide in neuronal cells) [8] | other results |
| --- | --- | --- | --- | --- | --- | --- | --- |
| oligomeric Aβ: soluble oligomeric Aβ prepared from synthetic Aβ1-42 peptide (AnaSpec) |  |  |  |  |  |  | Level of Bax ([1]; oligomeric Aβ-treated brain slices): not affected; Expression of Bim ([1]; oligomeric Aβ-treated brain slices, time-dependent): increased the expression of Bim; Number of 6A7-positive cells (active form of Bax) (Bax [2]; slice cultures, 24 h after treatment): significantly increased; Neuronal cell death induced by oligomeric Aβ in slice culture from bax−/− mice ([3]; bax−/− versus wild-type slices, 500 nM, 48 h): dramatically reduced; PI uptake / number of PI-positive cells (neuronal cell death) ([3]; wild-type slices, 500 nM, 48 h of treatment): significantly increased; Level of Bim in hippocampus ([4]; 10 days after injection): dramatically increased; Number of neurons containing the active form of Bax (6A7 antibody) ([4]; 10 days after injection): dramatically increased; Neuronal cell death in hippocampus ([4]; WT mouse, 20 days after intrahippocampal injection): induced neuronal cell death; Number of TUNEL-positive neurons ([4]; intrahippocampal injection): significantly increased |
| IFNγR2296-337: mutant encoding amino acids 296-337 of IFNγR2, lacking the Jak2-binding domain; expressed as EGFP fusion (KDPTQPILEALDKDSSPKDDVWDSVSIISFPEKEQEDVLQTL; also: EGFP fusion; listed as Homo sapiens) | inhibited STS-induced Bax activation | able to inhibit etoposide-induced apoptosis | able to inhibit apoptosis induced by Bax overexpression |  |  |  | Inhibition of apoptosis induced by Bim overexpression (human Bim EL): able to inhibit apoptosis induced by Bim overexpression |
| VPTLK (also: FITC tag, site not given here) [BIP] |  |  |  | significantly suppressed | significantly prevented PI uptake | equally penetrated neuronal cells | Suppression of oligomeric Aβ-induced caspase-3 activation (immunoblot) ([1]; peptide co-applied with oligomeric Aβ): significantly suppressed; Suppression of oligomeric Aβ-induced conformational change of Bax (6A7) (Bax [2]; slices treated with oligomeric Aβ for 48 h): suppresses oligomeric Aβ-induced conformational change of Bax |
| KLVPT [control peptide] |  |  |  | failed to prevent neuronal cell death | did not affect the level of PI uptake | equally penetrated neuronal cells |  |
| B1 | did not inhibit Bax activation | could not | could not protect cells from Bax |  |  |  |  |
